Laboratory results published in US20210137853A1, “METHODS OF TREATING EPILEPTIC PATIENTS WITH FENFLURAMINE” (Zogenix International Limited, priority 2019, published 2021).
Values joined by “and” are separate entries in the source; they are usually repeats but may differ in a detail not shown here. Equal values may be shown once. Read-outs that look alike come from different tables or passages of the source.

Legend:
[1] = test system: Maximal Electroshock (MES) model of acute generalized tonic clonic seizures; test: MES test of fenfluramine (FFA) alone, dose and time range; type: in vivo, mouse
From the text: Results are depicted in Table 6 below.

[2] = test system: Maximal Electroshock (MES) model of acute generalized tonic clonic seizures; test: MES test of fenfluramine in combination with serotonergic inhibitors; details: for Activity in MES model in presence of FFA (animals protected): Table 7, compound combined with 3 mg/kg FFA; for Impaired (I/F) / Protected (N/F): compound IP at Table 5 dose and time of test, with fenfluramine 3 mg/kg IP 4 hr pre-test; for effect on FFA anti-seizure activity in MES model (in words): summary of Table 7
Protocol: Specifically, the present example describes characterization of anticonvulsant effects of fenfluramine when administered in combination with various other compounds using a murine model of seizures: a Maximal Electroshock (IVIES) model. Maximal Electroshock (IVIES) is a model of acute generalized tonic clonic seizures. Induction of seizures is caused by 60 Hz 0.2 second alternating 50 mA current in the mouse. Tonic hindlimb extensions are measured to assess seizures or seizure protection.
So, for example, a compound with a 1 hour time of peak activity would be administered 3 hours after FEN administration in the study design.

[3] = molecular target: 5-HT1D (Homo sapiens, UniProt P28221); details: Table 4, cited from earlier work; for Ki: values from ChemBL, PDSP or DrugBank.ca and literature
Chain of 5-HT1D (P28221 whole entry, species assumed): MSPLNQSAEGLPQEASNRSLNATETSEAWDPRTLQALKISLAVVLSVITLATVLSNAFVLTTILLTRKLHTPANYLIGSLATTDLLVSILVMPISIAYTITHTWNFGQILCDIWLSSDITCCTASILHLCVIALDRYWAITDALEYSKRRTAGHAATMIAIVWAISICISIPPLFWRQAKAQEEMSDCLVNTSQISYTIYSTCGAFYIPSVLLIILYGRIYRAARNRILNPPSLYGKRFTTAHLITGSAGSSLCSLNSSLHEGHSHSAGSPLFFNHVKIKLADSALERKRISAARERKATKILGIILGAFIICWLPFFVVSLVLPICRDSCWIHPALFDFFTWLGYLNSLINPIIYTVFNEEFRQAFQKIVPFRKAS

[4] = molecular target: T1, 5-HT1A (Homo sapiens, UniProt P08908); details: cited from earlier work; for Ki: values from ChemBL, PDSP or DrugBank.ca and literature
T1 sequence (P08908 1-422): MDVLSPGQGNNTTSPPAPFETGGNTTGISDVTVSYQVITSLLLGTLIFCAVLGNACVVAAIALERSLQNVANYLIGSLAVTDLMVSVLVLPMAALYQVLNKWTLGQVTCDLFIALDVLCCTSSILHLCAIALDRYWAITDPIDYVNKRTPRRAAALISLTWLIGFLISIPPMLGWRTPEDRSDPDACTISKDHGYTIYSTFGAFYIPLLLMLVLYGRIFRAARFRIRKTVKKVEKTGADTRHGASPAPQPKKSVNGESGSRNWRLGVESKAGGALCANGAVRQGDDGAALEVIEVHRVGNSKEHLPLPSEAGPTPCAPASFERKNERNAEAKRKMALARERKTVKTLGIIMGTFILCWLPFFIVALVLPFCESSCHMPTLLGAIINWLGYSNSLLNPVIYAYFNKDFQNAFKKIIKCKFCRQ

[5] = molecular target: 5-HT1B (Homo sapiens, UniProt P28222); details: cited from earlier work
Chain of 5-HT1B (P28222 whole entry, species assumed): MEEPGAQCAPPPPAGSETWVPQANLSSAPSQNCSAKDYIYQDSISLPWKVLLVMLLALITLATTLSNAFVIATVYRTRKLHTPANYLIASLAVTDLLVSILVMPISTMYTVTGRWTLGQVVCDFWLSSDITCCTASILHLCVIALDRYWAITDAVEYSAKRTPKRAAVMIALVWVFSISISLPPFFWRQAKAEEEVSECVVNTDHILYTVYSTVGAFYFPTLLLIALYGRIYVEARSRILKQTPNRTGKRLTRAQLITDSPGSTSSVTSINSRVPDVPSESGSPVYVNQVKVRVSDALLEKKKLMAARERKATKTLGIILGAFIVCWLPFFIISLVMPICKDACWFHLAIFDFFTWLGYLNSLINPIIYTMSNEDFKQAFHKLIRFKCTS

[6] = molecular target: T2, 5-HT2C (Homo sapiens, UniProt P28335); details: Table 4; values from ChemBL, PDSP or DrugBank.ca and literature; cited from earlier work
T2 sequence (P28335 33-458): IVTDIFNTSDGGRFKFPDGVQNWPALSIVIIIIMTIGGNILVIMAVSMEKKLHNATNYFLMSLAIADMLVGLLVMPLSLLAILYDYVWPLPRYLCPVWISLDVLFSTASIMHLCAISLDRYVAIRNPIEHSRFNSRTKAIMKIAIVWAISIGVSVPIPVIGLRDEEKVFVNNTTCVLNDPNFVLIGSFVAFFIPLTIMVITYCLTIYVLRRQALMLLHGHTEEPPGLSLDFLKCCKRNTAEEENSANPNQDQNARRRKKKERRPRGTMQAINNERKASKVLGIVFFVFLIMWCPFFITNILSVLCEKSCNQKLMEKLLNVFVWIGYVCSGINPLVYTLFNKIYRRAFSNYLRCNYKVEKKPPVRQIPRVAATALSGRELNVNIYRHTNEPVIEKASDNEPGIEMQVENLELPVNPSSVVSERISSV

[7] = test system: Dravet syndrome seizures; details: supplemented with clobazam and valproate; cited from earlier work
[8] = molecular target: 5-HT2A (Homo sapiens, UniProt P28223); details: Table 4; values from ChemBL, PDSP or DrugBank.ca and literature; cited from earlier work
Chain of 5-HT2A (P28223 whole entry): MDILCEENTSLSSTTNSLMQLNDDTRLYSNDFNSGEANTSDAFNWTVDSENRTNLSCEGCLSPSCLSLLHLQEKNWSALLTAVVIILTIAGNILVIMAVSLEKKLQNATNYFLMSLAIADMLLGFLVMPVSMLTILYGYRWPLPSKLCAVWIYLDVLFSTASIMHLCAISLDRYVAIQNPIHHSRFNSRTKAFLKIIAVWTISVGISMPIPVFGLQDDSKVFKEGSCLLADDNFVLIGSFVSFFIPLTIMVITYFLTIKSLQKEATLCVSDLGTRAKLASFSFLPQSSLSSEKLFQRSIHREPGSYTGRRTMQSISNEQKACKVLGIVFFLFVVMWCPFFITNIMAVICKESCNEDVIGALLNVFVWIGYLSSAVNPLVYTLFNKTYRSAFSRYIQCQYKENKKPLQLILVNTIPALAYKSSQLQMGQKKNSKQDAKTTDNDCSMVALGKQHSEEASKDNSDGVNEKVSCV

[9] = test system: MES test; details: cited from earlier work
[10] = fenfluramine 3 mg/kg IP plus vehicle (VEH) only
[11] = 50% inhibition of specific binding, Moser et al. 1990

Structure (SMILES)	Activity in MES model in presence of FFA (animals protected) [2]	Impaired (I/F) [2]	Protected (N/F) [2]	effect on FFA anti-seizure activity in MES model (in words) [2]	Ki [3] [nM]	also measured
CCNC(C)Cc1cccc(C(F)(F)F)c1 (racemic) [Fenfluramine, (RS)—N-ethyl-1-[3-(trifluoromethyl)phenyl]propan-2-amine]	–	–	–	–	–	Activity in MES model: FFA protected ([1]; 2.5 mg/kg IP, 4 hr pre-MES, SOW #1 MES Quantification): FFA protected = 3/4; animals protected in the MES assay ([1]; 3 mg/kg FFA): 50-60%; Activity in MES model: FFA protected ([1]; 3 mg/kg IP, 2 hr pre-MES, SOW #1 MES Identification): FFA protected = 3/4; Activity in MES model: FFA protected ([1]; 3 mg/kg, 4 hr pre-MES, SOW #2 (-) control): FFA protected = 4/8; Activity in MES model: FFA protected ([1]; 3 mg/kg, 4 hr pre-MES, SOW #3 (-) control): FFA protected = 5/8; Activity in MES model: FFA protected ([1]; 5 mg/kg IP, 4 hr pre-MES, SOW #1 MES Quantification): FFA protected = 6/8; protection in the MES model ([1]; 10 mg/kg FFA): 100%; Activity in MES model: FFA protected ([1]; 10 mg/kg IP, 2 hr pre-MES, SOW #1 MES Time Course): FFA protected = 3/4; Activity in MES model: FFA protected ([1]; 10 mg/kg IP, 4 hr pre-MES, SOW #1 MES Quantification): FFA protected = 8/8; Activity in MES model: FFA protected ([1]; 10 mg/kg IP, 4 hr pre-MES, SOW #1 MES Time Course): FFA protected = 4/4; Impaired (I/F) [1, 10]: 0/8; Protected (N/F) [1, 10]: 4/8 and 5/8
OC(CN1CCN(c2cccc(Cl)c2)CC1)C(c1ccccc1)c1ccccc1 (stereo not drawn) [BRL 15572]	FFA reduced protection = 1/8	0/8	1/8	appear to block FFA anti-seizure activity	–	pKi 5-HT1D [3]: 7.9; pKi 5-HT1A ([4]; Table 4): 7.7
O=C1CC2(CCCC2)CC(=O)N1CCNCC1COc2ccccc2O1 (stereo not drawn) [Binospirone]	FFA protected = 3/8	0/8	3/8	–	–	pIC50 5-HT1B [5, 11]: 4.5; pIC50 5-HT1A [4, 11]: 8.6
NC(=O)N1c2ccccc2C=Cc2ccccc21 [Carbamazepine]	Protected = 8/8	0/8	8/8	no interference was observed	–	–
CN(C)CCCN1c2ccccc2Sc2ccc(Cl)cc21 [Chlorpromazine]	FFA protected = 5/8	–	5/8	do not block FFA anti-seizure activity	452	–
CN1CCN(C2=Nc3cc(Cl)ccc3Nc3ccccc32)CC1 [Clozapine]	FFA reduced protection = 1/8	–	–	appear to block FFA anti-seizure activity	–	–
CN1CCN(C2=Nc3ccccc3Oc3ccc(Cl)cc32)CC1 [Loxapine]	–	–	–	–	3470	Ki ([5]; Table 4, values from ChemBL, PDSP or DrugBank.ca and literature): 388 nM; Ki [6]: 9.5 to 21 nM; Ki ([4]; Table 4): 2460 nM
Clc1ccc2c(c1)N=C(N1CCNCC1)c1ccccc1N2 [N-desmethyl-clozapine, N-desmethylclozapine]	FFA reduced protection = 1/8	0/8	1/8	appear to block FFA anti-seizure activity	130	Ki [6]: 4.8 nM; Ki ([4]; Table 4): 160 nM
O=c1[nH]c2ccccc2n1C1CCN(CCCC(c2ccc(F)cc2)c2ccc(F)cc2)CC1 [Pimozide]	FFA protected = 3/8	–	3/8	do not block FFA anti-seizure activity	3100	–
CC(C)NCC(O)COc1cccc2[nH]ccc12 (stereo not drawn) [Pindolol]	FFA protected = 5/8	–	5/8	do not block FFA anti-seizure activity	4900	–
CC(C)(C)C(O)/C=C/c1ccc2c(c1)OCO2 (stereo not drawn) [Stiripentol, stiripentol]	–	–	–	–	–	reduction of overall seizure rate [7]: 70%
CN1CC2c3ccccc3Oc3ccc(Cl)cc3C2C1 (stereo not drawn) [asenapine]	FFA reduced protection = 2/8	0/8	2/8	–	10.2	Ki [6]: 0.27 nM; Ki ([4]; Table 4): 15 nM; Ki [8]: 0.77 nM
CN(C)CCCN1c2ccccc2CCc2ccc(Cl)cc21 [clomipramine]	FFA protected = 7/8	0/8	7/8	do not block FFA anti-seizure activity	–	Ki [6]: 64.6 nM
CN(C)CCC=C1c2ccccc2COc2ccccc21 [doxepin]	FFA protected = 7/8	–	7/8	do not block FFA anti-seizure activity	–	ED50 in MES test ([9]; 0.25 hr post-administration): 8.2 mg/kg; ED50 in MES test ([9]; IP, at TPE of 5 min): 6.6 mg
CN1CCN2c3ccccc3Cc3ccccc3C2C1 (stereo not drawn) [mianserin]	FFA reduced protection = 2/8	0/8	2/8	–	–	–
OCCN1CCN(CCCN2c3ccccc3Sc3ccc(Cl)cc32)CC1 [perphenazine]	FFA reduced protection = 2/8	–	2/8	–	–	–
